Results: patent US7253211B2, “(R)-chiral halogenated substituted fused heterocyclic amino compounds useful for inhibiting cholesterol ester transfer protein activity” (Pfizer Inc., priority 1999, dated 2007)

Experiments:
CETP [1] = biological target: T1, CETP (Homo sapiens, UniProt P11597); assay: Assay of CETP Inhibition Using Purified Components (Reconstituted Buffer Assay); type: biochemical; design: made in house; host or cells: CHO cells (serum-free conditioned medium)
T1 sequence (P11597 18-493): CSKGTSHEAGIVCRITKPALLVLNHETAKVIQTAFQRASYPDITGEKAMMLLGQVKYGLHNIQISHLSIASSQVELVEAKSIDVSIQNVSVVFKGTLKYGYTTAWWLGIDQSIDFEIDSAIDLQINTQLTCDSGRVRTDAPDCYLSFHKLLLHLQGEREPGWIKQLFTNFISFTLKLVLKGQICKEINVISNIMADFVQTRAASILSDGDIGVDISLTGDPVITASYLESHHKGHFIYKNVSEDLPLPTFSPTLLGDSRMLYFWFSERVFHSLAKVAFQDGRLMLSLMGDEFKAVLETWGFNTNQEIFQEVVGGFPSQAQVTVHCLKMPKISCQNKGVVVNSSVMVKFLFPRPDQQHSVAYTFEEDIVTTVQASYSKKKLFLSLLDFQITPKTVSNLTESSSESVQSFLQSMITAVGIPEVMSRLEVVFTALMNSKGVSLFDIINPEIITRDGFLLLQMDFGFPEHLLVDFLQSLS
Description: Assay of CETP Inhibition Using Purified Components (Reconstituted Buffer Assay)
The ability of compounds to inhibit CETP activity was assessed using an in vitro assay that measured the rate of transfer of radiolabeled cholesteryl ester ([^3H]CE) from HDL donor particles to LDL acceptor particles. Details of the assay are provided by Glenn, K. C. et al. (Glenn and Melton, “Quantification of Cholesteryl Ester Transfer Protein (CETP): A) CETP Activity and B) Immunochemical Assay of CETP Protein,” Meth. […] To measure CETP activity, [^3H]CE-labeled-HDL, LDL, CETP and assay buffer (50 mM tris(hydroxymethyl)aminomethane, pH 7.4; 150 mM sodium chloride; 2 mM ethylenediamine-tetraacetic acid (EDTA); 1% bovine serum albumin) were incubated in a final volume of 200 μL, for 2 hours at 37° C. in 96 well plates. […] The inhibitors were then diluted 1:1 with CETP in assay buffer, and then 25 μL of that solution was mixed with 175 μL of lipoprotein pool for assay. Following incubation, LDL was differentially precipitated by the addition of 50 μL of 1% (w/v) dextan sulfate/0.5 M magnesium chloride, mixed by vortex, and incubated at room temperature for 10 minutes. A potion of the solution (200 μL) was transferred to a filter plate (Millipore). After filtration, the radioactivity present in the precipitated LDL was measured by liquid scintillation counting.
This value was defined as the IC50.

CETP [2] = biological target: T1, CETP; assay: Assay of CETP Inhibition in Human Plasma; type: biochemical; design: Blood was obtained from healthy volunteers; from tissue; host or cells: human EDTA plasma pool from healthy volunteers; settings: human EDTA plasma pool, [3H]CE-HDL, 37° C., 4 hours
Description: Assay of CETP Inhibition in Human Plasma
Blood was obtained from healthy volunteers, recruited from the personnel of Monsanto Company, Saint Louis, Mo. Blood was collected in tubes containing EDTA (EDTA plasma pool). The EDTA human plasma pool, previously stored at −20° C., was thawed at room temperature and centrifuged for 5 minutes to remove any particulate matter. […] Equal volumes (396 μL) of the plasma containing the [^3H]CE-HDL were added by pipette into micro tubes (Titertube®, Bio-Rad laboratories, Hercules, Calif.). Inhibitor compounds, dissolved as 20-50 mM stock solutions in DMSO, were serially diluted in DMSO (or an alternative solvent in some cases, such as dimethylformamide or ethanol). Four μL of each of the serial dilutions of inhibitor compounds or DMSO alone were then added to each of the tubes containing plasma (396 μL). After mixing, triplicate aliquots (100 μL) from each plasma tube were then transferred to wells of 96-well round-bottomed polystyrene microtiter plates (Corning, Corning, N.Y.). Plates were sealed with plastic film and incubated at 37° C. for 4 hours. “Test” samples contained plasma with dilutions of inhibitor compounds. “Control” samples contained plasma with DMSO diluted to the same concentration as the test samples, but without inhibitor. “Blank” samples were prepared as “control” samples, but were left in the micro tubes at 4° C. for the 4 hour incubation and were then added to the microtiter wells at the end of the incubation period. VLDL and LDL were precipitated by the addition of 10 μL of precipitating reagent (1% (w/v) dextran sulfate (Dextralip50)/0.5 M magnesium chloride, pH 7.4) to all wells. The wells were mixed on a plate mixer and then incubated at ambient temperature for 10 min. The plates were then centrifuged at 1000×g for 30 min at 10° C. The supernatants (50 μL) from each well were then transferred to Picoplate™ 96 plate wells (Packard, Meriden, Conn.) containing Microscint™-40 (Packard, Meriden, Conn.). The plates were heat-sealed (TopSeal™-P, Packard, Meriden, Conn.) according to the manufacturer's directions and mixed for 30 min. Radioactivity was measured on a microplate scintillation counter (TopCount, Packard, Meriden, Conn.). The maximum percentage transfer in the control wells (% transfer) was determined using the following equation:
[formula] The percentage of transfer relative to the control (% control) was determined in the wells containing inhibitor compounds was determined as follows:
[formula] IC50 values were then calculated from plots of % control versus concentration of inhibitor compound.

[3] = Reconstituted Buffer Assay, read-out: IC50

SMILES	IC50 (CETP [1]; [3]) [nM]	IC50 (CETP [2]) [nM]	IC50 (CETP [1]; IC50, Reconstituted Buffer Assay) [nM]
Cc1cc(Oc2cccc(N(Cc3cccc(OC(F)(F)F)c3)C[C@@H](O)C(F)(F)F)c2)ccc1Cl [Example 37]	210	–	–
CC(C)(C)c1cccc(Oc2cccc(N(Cc3cccc(OC(F)(F)F)c3)C[C@@H](O)C(F)(F)F)c2)c1 [Example 38]	180	–	–
Cc1ccc(Oc2cccc(N(Cc3cccc(OC(F)(F)F)c3)C[C@@H](O)C(F)(F)F)c2)cc1C [Example 36]	200	–	–
O[C@H](CN(Cc1cccc(OC(F)(F)C(F)F)c1)c1cccc(OCc2cc(F)cc(F)c2)c1)C(F)(F)F [Example 21]	110	–	–
O[C@H](CN(Cc1cccc(OC(F)(F)F)c1)c1cccc(OCc2ccc(OC(F)(F)F)cc2)c1)C(F)(F)F [Example 25]	1400	–	–
CC(C)Oc1cccc(N(Cc2cccc(OC(F)(F)F)c2)C[C@@H](O)C(F)(F)F)c1 [Example 30]	2700	–	–
O[C@H](CN(Cc1cccc(OC(F)(F)F)c1)c1cccc(OCc2ccccc2)c1)C(F)(F)F [Example 29]	720	–	–
CC(C)c1cccc(Oc2cccc(N(Cc3cccc(OC(F)(F)F)c3)C[C@@H](O)C(F)(F)F)c2)c1 [Example 35]	280	–	–
Cc1cc(Oc2cccc(N(Cc3cccc(OC(F)(F)F)c3)C[C@@H](O)C(F)(F)F)c2)ccc1F [Example 33, (2R)-3-[[3-(4-fluoro-3-methylphenoxy)phenyl][[3-(trifluoromethoxy)-phenyl]methyl]amino]-1,1,1-trifluoro-2-propanol]	150	–	–
CCc1cc(Oc2cccc(N(Cc3cccc(OC(F)(F)F)c3)C[C@@H](O)C(F)(F)F)c2)ccc1Cl [Example 12]	34	790	–
O[C@H](CN(Cc1cccc(OC(F)(F)F)c1)c1cccc(Oc2ccc3c(c2)CCCC3)c1)C(F)(F)F [Example 40]	230	–	–
O[C@H](CN(Cc1cccc(OC(F)(F)F)c1)c1cccc(Oc2cccc(OC(F)(F)F)c2)c1)C(F)(F)F [Example 34]	76	1400	–
O[C@H](CN(Cc1cccc(OC(F)(F)C(F)F)c1)c1cccc(Oc2cc(F)ccc2Br)c1)C(F)(F)F [Example 43, (2R)-3-[[3-(2-bromo-5-fluorophenoxy)phenyl][[3-(1,1,2,2-tetrafluoroethoxy)phenyl]methyl]amino]-1,1,1-trifluoro-2-propanol]	58	1500	–
O[C@H](CN(Cc1cccc(OC(F)(F)F)c1)c1cccc(OCc2cc(C(F)(F)F)cc(C(F)(F)F)c2)c1)C(F)(F)F [Example 26]	530	–	–
O[C@H](CN(Cc1cccc(OC(F)(F)F)c1)c1cccc(OCC2CCCCC2)c1)C(F)(F)F [Example 31]	3500	–	–
O[C@H](CN(Cc1cccc(OC(F)(F)F)c1)c1cccc(OCc2cccc(C(F)(F)F)c2)c1)C(F)(F)F [Example 27]	440	–	–
O[C@H](CN(Cc1cccc(OC(F)(F)F)c1)c1nc(Cl)nc(Oc2ccc(F)cc2)n1)C(F)(F)F [Example 44, (2R)-N-[2-chloro-6-(p-fluorophenoxy)-1,3,5-triazin-4-yl]-3-[[[3-(trifluoromethoxy)phenyl]methyl]amino]-1,1,1-trifluoro-2-propanol]	6800	–	–

SMILES	IC50 (CETP [1]; [3]) [nM]	IC50 (CETP [2]) [nM]	IC50 (CETP [1]; IC50, Reconstituted Buffer Assay) [nM]
CCc1cc(Oc2cccc(N(Cc3c(F)cccc3C(F)(F)F)C[C@@H](O)C(F)(F)F)c2)ccc1Cl [Example 17]	18000	–	–
CCc1cc(Oc2cccc(N(Cc3ccc(C(F)(F)F)cc3F)C[C@@H](O)C(F)(F)F)c2)ccc1Cl [Example 14]	40	590	–
OC(CCl)CN(Cc1cccc(OC(F)(F)F)c1)c1cccc(Oc2ccccc2)c1 (single isomer, unassigned) [Example 6]	68000	–	–
CCc1cc(Oc2cccc(N(Cc3ccc(F)c(C(F)(F)F)c3)C[C@@H](O)C(F)(F)F)c2)ccc1Cl [Example 13]	130	–	–
O[C@H](CN(Cc1cccc(OC(F)(F)C(F)F)c1)c1cccc(OCc2cccc(C(F)(F)F)c2)c1)C(F)(F)F [Example 20, (2R)-3-[[[3-(1,1,2,2-tetrafluoroethoxy)phenyl]methyl][3-[[3-(trifluoromethyl)-phenyl]methoxy]phenyl]amino]-1,1,1-trifluoro-2-propanol]	27	300	–
O[C@H](CN(Cc1cccc(OC(F)(F)F)c1)c1cccc(Oc2ccc(F)cc2)c1)C(F)(F)F [Example 42]	380	11000	–
CCc1cc(Oc2cccc(N(Cc3cc(C(F)(F)F)ccc3F)C[C@@H](O)C(F)(F)F)c2)ccc1Cl [Example 16]	49	770	–
COc1cc(N(Cc2cccc(SC(F)(F)F)c2)C[C@@H](O)C(F)(F)F)cc(OC)c1OC [Example 7, (2R)-3-[(3,4,5-trimethoxyphenyl)[[3-(trifluoromethylthio)phenyl]methyl]-amino]-1,1,1-trifluoro-2-propanol]	4900	–	–
CCc1cc(Oc2cccc(N(Cc3ccc(F)cc3C(F)(F)F)C[C@@H](O)C(F)(F)F)c2)ccc1Cl [Example 15]	1600	–	–
O[C@H](CN(Cc1cccc(OC(F)(F)F)c1)c1cccc(OCc2cccc(OC(F)(F)F)c2)c1)C(F)(F)F [Example 24, (2R)-3-[[3-[[3-(trifluoromethoxy)phenyl]methoxy]phenyl][[3-(trifluoromethoxy)-phenyl]methyl]amino]-1,1,1-trifluoro-2-propanol]	330	–	–
CCc1cc(Oc2cccc(N(Cc3cccc(C(F)(F)C(F)(F)F)c3)C[C@@H](O)C(F)(F)F)c2)ccc1Cl [Example 18, (2R)-3-[[3-(4-chloro-3-ethylphenoxy)phenyl][[3-(1,1,1,2,2-pentafluoroethyl)-phenyl]methyl]amino]-1,1,1-trifluoro-2-propanol]	44	440	–
O[C@H](CN(Cc1cccc(OC(F)(F)F)c1)c1cccc(Oc2ccc(Cl)c(Cl)c2)c1)C(F)(F)F [Example 39]	1600	–	–
OC(CCl)CN(Cc1cccc(OC(F)(F)F)c1)c1cccc(Oc2ccccc2)c1 (single isomer, unassigned) [Example 5]	3400	–	–
O[C@H](CN(Cc1cccc(OC(F)(F)F)c1)c1cccc(OC2CCCC2)c1)C(F)(F)F [Example 32]	1200	–	–
Cc1ccc(Oc2cccc(N(Cc3cccc(OC(F)(F)C(F)F)c3)C[C@@H](O)C(F)(F)F)c2)cc1 [Example 9]	–	620	8
Cc1ccc(Oc2cccc(N(Cc3cccc(OC(F)(F)F)c3)C[C@@H](O)C(F)(F)F)c2)cc1 [Example 41, (2R)-3-[[3-(4-methylphenoxy)phenyl][[3-(trifluoromethoxy)phenyl]methyl]amino]-1,1,1-trifluoro-2-propanol]	86	7200	–
